In patent US9765075B2, “Substituted bridged urea analogs as sirtuin modulators” (GLAXOSMITHKLINE LLC, priority 2013, dated 2017):

Biological target: T1, SIRT1 (Homo sapiens, UniProt Q96EB6)
T1 sequence (Q96EB6 1-747): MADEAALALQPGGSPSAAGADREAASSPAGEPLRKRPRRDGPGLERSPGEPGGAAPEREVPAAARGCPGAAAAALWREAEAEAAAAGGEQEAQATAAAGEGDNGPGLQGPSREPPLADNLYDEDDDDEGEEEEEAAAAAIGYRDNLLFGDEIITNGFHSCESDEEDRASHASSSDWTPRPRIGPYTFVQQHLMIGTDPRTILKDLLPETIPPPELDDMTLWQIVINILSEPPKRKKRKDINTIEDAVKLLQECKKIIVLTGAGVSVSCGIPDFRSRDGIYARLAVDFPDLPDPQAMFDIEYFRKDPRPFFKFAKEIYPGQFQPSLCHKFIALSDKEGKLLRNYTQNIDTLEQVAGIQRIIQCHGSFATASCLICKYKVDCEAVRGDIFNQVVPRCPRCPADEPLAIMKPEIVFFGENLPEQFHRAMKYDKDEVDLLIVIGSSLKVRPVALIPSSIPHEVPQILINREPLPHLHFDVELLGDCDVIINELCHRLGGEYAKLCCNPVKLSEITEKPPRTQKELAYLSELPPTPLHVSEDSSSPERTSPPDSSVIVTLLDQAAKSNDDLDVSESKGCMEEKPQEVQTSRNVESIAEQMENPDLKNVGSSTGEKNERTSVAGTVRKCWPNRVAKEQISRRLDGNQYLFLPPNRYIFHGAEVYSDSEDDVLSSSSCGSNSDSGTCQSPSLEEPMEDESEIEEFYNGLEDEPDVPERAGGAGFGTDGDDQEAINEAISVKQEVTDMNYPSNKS
Assay: Trp mass spectrometry assay (SIRT1 activation)
Type: biochemical
Conditions: Trp mass spectrometry assay; for Tryp AVG EC1.5 (μM): EC1.5 = concentration giving 150% activation of SIRT1; for Emax: percent maximum fold activation of SIRT1, read-out: Tryp % Fold Act
Summary of the method: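 Activation is expressed as EC1.5, the concentration raising activity 50% above DMSO control, and as maximum percent of control. Mass-spec readout was OAADPR or deacetylated Trp peptide after a formic-acid-quenched 25-min, 25 °C reaction: 10 nM bacterially expressed His-SIRT1, 0.5 μM acetyl-p53-derived peptide, 120 μM NAD+, pH 7.5 HEPES with […].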

Row | SMILES | Tryp AVG EC1.5 (μM) | Emax
1 | O=C(Nc1cnccn1)N1c2nc(-c3cccc(Cl)c3)ccc2N2C[C@@H](O)[C@H]1C2 [Example 678] | C (EC1.5>25 μM) | < 150%
2 | COc1cc(NC(=O)N2c3nc(-c4cccc(Cl)c4)ccc3N3C[C@@H](O)[C@H]2C3)ncn1 [Example 679] | B (EC1.5 1-25 μM) | ≥ 150%
3 | COc1cc(NC(=O)N2c3nc(-c4cccc(Cl)c4)ccc3N3C[C@@H](O)[C@H]2C3)nc(OC)n1 [Example 680] | B (EC1.5 1-25 μM) | ≥ 150%
4 | O=C(Nc1cccnc1)N1c2nc(-c3cccc(Cl)c3)ccc2N2C[C@@H](O)[C@H]1C2 [Example 681] | B (EC1.5 1-25 μM) | ≥ 150%
5 | O=C(Nc1cccnn1)N1c2nc(-c3cccc(Cl)c3)ccc2N2C[C@@H](O)[C@H]1C2 [Example 682] | B (EC1.5 1-25 μM) | ≥ 150%
6 | O=C(Nc1cccc(-c2cnco2)c1)N1c2nc(-c3cccc(Cl)c3)ccc2N2C[C@@H](O)[C@H]1C2 [Example 683] | A (EC1.5<1 μM) | ≥ 150%
7 | O=C(Nc1ccncn1)N1c2nc(-c3cccc(Cl)c3)ccc2N2C[C@@H](O)[C@H]1C2 [Example 684] | B (EC1.5 1-25 μM) | ≥ 150%
8 | O=C(Nc1cc(-c2cnco2)ccn1)N1c2nc(-c3cccc(Cl)c3)ccc2N2C[C@@H](O)[C@H]1C2 [Example 685] | B (EC1.5 1-25 μM) | ≥ 150%
9 | Cc1nc(NC(=O)N2c3nc(-c4cccc(Cl)c4)ccc3N3C[C@@H](O)[C@H]2C3)sc1C [Example 688] | B (EC1.5 1-25 μM) | ≥ 150%
10 | O=C(NCCCCn1ccnc1)N1c2nc(-c3cccc(C(F)(F)F)c3)ccc2N2CC[C@H]1C2 [Example 689] | B (EC1.5 1-25 μM) | ≥ 150%
11 | Cc1cncc(NC(=O)N2c3nc(-c4cncc(C(F)(F)F)c4)ccc3N3C[C@@H](O)[C@H]2C3)c1 [Example 690] | B (EC1.5 1-25 μM) | ≥ 150%
12 | O=C(Nc1cncc(F)c1)N1c2nc(-c3cncc(C(F)(F)F)c3)ccc2N2C[C@@H](O)[C@H]1C2 [Example 691] | B (EC1.5 1-25 μM) | ≥ 150%
13 | O=C1CN2C[C@H]1N(C(=O)Nc1cccc(-c3cnco3)c1)c1nc(-c3cccc(C(F)(F)F)c3)ccc12 [Example 692] | A (EC1.5<1 μM) | ≥ 150%
14 | O=C(Nc1cccc(-c2cnco2)n1)N1c2nc(-c3cccc(Cl)c3)ccc2N2C[C@@H](O)[C@H]1C2 [Example 693] | A (EC1.5<1 μM) | ≥ 150%
15 | O=C(Nc1ccccn1)N1c2nc(-c3cncc(C(F)(F)F)c3)ccc2N2C[C@@H](O)[C@H]1C2 [Example 694] | A (EC1.5<1 μM) | ≥ 150%
16 | O=C(Nc1cnccn1)N1c2nc(-c3cncc(C(F)(F)F)c3)ccc2N2C[C@@H](O)[C@H]1C2 [Example 695] | B (EC1.5 1-25 μM) | ≥ 150%
17 | COc1cc(NC(=O)N2c3nc(-c4cncc(C(F)(F)F)c4)ccc3N3C[C@@H](O)[C@H]2C3)ncn1 [Example 696] | B (EC1.5 1-25 μM) | ≥ 150%
18 | Cc1nc(NC(=O)N2c3nc(-c4cncc(C(F)(F)F)c4)ccc3N3C[C@@H](O)[C@H]2C3)sc1C [Example 697] | B (EC1.5 1-25 μM) | ≥ 150%
19 | O=C(Nc1cccc(-c2cnco2)n1)N1c2nc(-c3cccc(C(F)(F)F)c3)ccc2N2C[C@@H](O)[C@H]1C2 [Example 698] | A (EC1.5<1 μM) | ≥ 150%
20 | Cc1nc(NC(=O)N2c3nc(-c4cccc(C(F)(F)F)c4)ccc3N3C[C@@H](O)[C@H]2C3)sc1C [Example 699] | B (EC1.5 1-25 μM) | ≥ 150%
21 | O=C(Nc1ccncn1)N1c2nc(-c3cncc(C(F)(F)F)c3)ccc2N2C[C@@H](O)[C@H]1C2 [Example 700] | B (EC1.5 1-25 μM) | ≥ 150%
22 | O=C(Nc1cccnn1)N1c2nc(-c3cncc(C(F)(F)F)c3)ccc2N2C[C@@H](O)[C@H]1C2 [Example 701] | B (EC1.5 1-25 μM) | ≥ 150%
23 | O=C(Nc1cccc(-c2cnco2)n1)N1c2nc(-c3cncc(C(F)(F)F)c3)ccc2N2C[C@@H](O)[C@H]1C2 [Example 703] | A (EC1.5<1 μM) | ≥ 150%

Row | SMILES | Tryp AVG EC1.5 (μM) | Emax
24 | COc1cc(NC(=O)N2c3nc(-c4cncc(C(F)(F)F)c4)ccc3N3C[C@@H](O)[C@H]2C3)nc(OC)n1 [Example 704] | B (EC1.5 1-25 μM) | ≥ 150%
25 | O=C(Nc1cccnc1)N1c2nc(-c3cncc(C(F)(F)F)c3)ccc2N2C[C@@H](O)[C@H]1C2 [Example 705] | B (EC1.5 1-25 μM) | ≥ 150%
26 | O=C(NCc1ncc(-c2cccc(NC(=O)N3c4nc(-c5cccc(C(F)(F)F)c5)ccc4N4CC[C@H]3C4)c2)o1)OCc1ccccc1 [Example 706] | A (EC1.5<1 μM) | ≥ 150%
27 | O=C(CCCCCNC(=O)c1ccc2c(c1)C(=O)OC21c2ccc(O)cc2Oc2cc(O)ccc21)NCc1ncc(-c2cccc(NC(=O)N3c4nc(-c5cccc(C(F)(F)F)c5)ccc4N4CC[C@H]3C4)c2)o1 [Example 708] | A (EC1.5<1 μM) | ≥ 150%
28 | O=C(Nc1cccc(-c2cnco2)c1)N1c2nc(-c3cncc(C(F)(F)F)c3)ccc2N2C[C@@H](O)[C@H]1C2 [Example 709] | A (EC1.5<1 μM) | ≥ 150%
29 | CS(=O)(=O)c1cccc(-c2ccc3c(n2)N(C(=O)Nc2cccc(-c4cnco4)c2)[C@H]2CCN3C2)c1 [Example 710] | A (EC1.5<1 μM) | ≥ 150%
30 | CCC(=O)c1cccc(NC(=O)N2c3nc(-c4cccc(C(F)(F)F)c4)ccc3N3CC[C@H]2C3)c1 [Example 714] | A (EC1.5<1 μM) | ≥ 150%
31 | CS(=O)(=O)c1cccc(-c2ccc3c(n2)N(C(=O)Nc2cccc(-c4cnco4)n2)[C@H]2CCN3C2)c1 [Example 715] | B (EC1.5 1-25 μM) | ≥ 150%
32 | O=C(Nc1cncc(-c2cnco2)c1)N1c2nc(-c3cncc(F)c3)ccc2N2CC[C@H]1C2 [Example 716] | B (EC1.5 1-25 μM) | ≥ 150%
33 | O=C(Nc1cccc(-c2cnco2)c1)N1c2nc(N3CCC[C@@H](C(F)(F)F)C3)ccc2N2CC[C@H]1C2 [Example 717] | A (EC1.5<1 μM) | ≥ 150%
34 | O=C(Nc1cccc(-c2cnco2)c1)N1c2nc(N3CCC[C@H](C(F)(F)F)C3)ccc2N2CC[C@H]1C2 [Example 718] | A (EC1.5<1 μM) | ≥ 150%
35 | O=C(Nc1nnc(-c2ccccc2)o1)N1c2nc(-c3cccc(C(F)(F)F)c3)ccc2N2CC[C@H]1C2 [Example 719] | A (EC1.5<1 μM) | ≥ 150%
36 | O=C(Nc1nnc(-c2ccccn2)o1)N1c2nc(-c3cccc(C(F)(F)F)c3)ccc2N2CC[C@H]1C2 [Example 720] | A (EC1.5<1 μM) | ≥ 150%
37 | O=C(Nc1nnc(-c2cccnc2)o1)N1c2nc(-c3cccc(C(F)(F)F)c3)ccc2N2CC[C@H]1C2 [Example 721] | A (EC1.5<1 μM) | ≥ 150%
38 | O=C(Nc1cccc(-c2cnco2)c1)N1c2nc(-c3cncc(F)c3)ccc2N2CC[C@H]1C2 [Example 722] | A (EC1.5<1 μM) | ≥ 150%
39 | CS(=O)(=O)c1cccc(-c2ccc3c(n2)N(C(=O)Nc2cc(-c4cnco4)ccn2)[C@H]2CCN3C2)c1 [Example 723] | A (EC1.5<1 μM) | ≥ 150%
40 | CS(=O)(=O)c1cccc(-c2ccc3c(n2)N(C(=O)Nc2cncc(-c4cnco4)c2)[C@H]2CCN3C2)c1 [Example 724] | A (EC1.5<1 μM) | ≥ 150%
41 | NCc1ncc(-c2cccc(NC(=O)N3c4nc(-c5cccc(C(F)(F)F)c5)ccc4N4CC[C@H]3C4)c2)o1 [Example 725] | A (EC1.5<1 μM) | ≥ 150%
42 | O=C(Nc1cc(-c2cnco2)ccn1)N1c2nc(-c3cncc(C(F)(F)F)c3)ccc2N2C[C@@H](O)[C@H]1C2 [Example 726] | B (EC1.5 1-25 μM) | < 150%
43 | O=C(Nc1cc(-c2cnco2)ccn1)N1c2nc(-c3cncc(F)c3)ccc2N2CC[C@H]1C2 [Example 727] | A (EC1.5<1 μM) | ≥ 150%
44 | O=C(Nc1cccc(CN2CCNCC2)c1)N1c2nc(-c3cccc(C(F)(F)F)c3)ccc2N2CC[C@H]1C2 [Example 731] | A (EC1.5<1 μM) | ≥ 150%
45 | O=C(Nc1nnc(-c2ccncc2)s1)N1c2nc(-c3cccc(C(F)(F)F)c3)ccc2N2CC[C@H]1C2 [Example 733] | A (EC1.5<1 μM) | ≥ 150%
